Values quoted from earlier work in PMC7207041 (Medicinal chemistry research : an international journal for …, 2020).
Each block holds one compound with its values, some of them ahead of it.

Assays:
Nrf2-regulated proteins = conditions: WT mice; ref Walsh et al. 2014
[1] = system: ARE-mediated genes in HepG2 cells; conditions: read-out: EC50, activation of ARE-mediated genes, ref Hu et al. 2013b
[2] = system: cultured human kidney cells (HEK293); conditions: HEK293, 50 and 100 μM; ref Wen et al. 2015
[3] = ref Lazzara et al. 2020
[4] = human liver microsomes; ref Lazzara et al. 2020
Keap1 Kelch domain = conditions: read-out: Kd in ITC assay; ref Winkel et al. 2015
[5] = human, mouse, and rat; ref Winkel et al. 2015
GCLC and NQO1 = conditions: mouse, administered together with a cytochrome P450 inhibitor; ref Winkel et al. 2015
Keap1-Nrf2 PPI [6] = conditions: read-out: IC50 in FP assay; ref Jiang et al. 2018
[7] = system: LPS-induced cardiomyopathy; conditions: ref Jiang et al. 2018
Keap1-Nrf2 PPI [8] = conditions: same FP assay conditions; ref Tran et al. 2019

SMILES: COC(=O)[C@]12CCC(C)(C)C[C@H]1[C@H]1C(=O)C=C3[C@@]4(C)C=C(C#N)C(=O)C(C)(C)[C@@H]4CC[C@@]3(C)[C@]1(C)CC2 [CDDO-Me, bardoxolone methyl]
number of proteins changed by treatment (Nrf2-regulated proteins): 43 proteins

SMILES: O=C(O)[C@H]1CCCC[C@H]1C(=O)N1CCc2ccccc2[C@H]1CN1C(=O)c2ccccc2C1=O [Compound 1]
EC50 [1]: 18 µM
HO-1 protein expression enhancement [2]: 3.5 fold
TRX1 protein expression enhancement [2]: 2–4 fold

SMILES: COc1ccc(S(=O)(=O)N(CC(F)(F)F)c2cnc(N(CC(=O)O)S(=O)(=O)c3ccc(OC)cc3)c3ccccc23)cc1 [Compound 11]
logD7.4 [3]: 0.5
metabolic stability t1/2 [4]: 2.27 h
cellular levels of Nrf2 and NQO1 expression (Nrf2 target genes; compared with 10, ref Lazzara et al. 2020): remarkable increase

SMILES: Cc1cc(C)c(C)c(S(=O)(=O)Nc2ccc(N3CC[C@H](C(=O)O)C3)c3ccccc23)c1C [Compound 12]
Kd (Keap1 Kelch domain): 6 µM
metabolic stability in liver microsomes [5]: low metabolic stability
hepatic mRNA levels of GCLC and NQO1 (GCLC and NQO1): significantly increased

Further lines, with some results ahead:

IC50 (Keap1-Nrf2 PPI [6]): 5.1 µM
SMILES: C=CCOC(=O)/N=c1\oc2cc(N(CC)CC)ccc2cc1-c1nc2ccccc2s1 [Compound 25]
effect in mouse model of LPS-induced cardiomyopathy [7]: cardiac protective effect
mRNA levels of Nrf2 target genes (HO-1 and NQO1) (Nrf2 target genes; H9c2 cardiac cells, ref Jiang et al. 2018): significant increase

Comparative assessment by Bach et. al. FP (Ki μM) (Keap1-Nrf2 PPI [8]): NA (≤77)
SMILES: O=[N+]([O-])c1ccc(Sc2nnc(COc3ccccc3)n2-c2ccccc2)c2ncccc12 [Compound 30]
expression of Nrf2-responsive proteins NQO1 and GCLM (Nrf2 target genes; ref Kazantsev et al. 2014): induced expression
